Experimental data as given in paper PMC10451629, “Evaluation of the Effects of Heteroaryl Ethylene Molecules in Combination with Antibiotics: A Preliminary Study on Control Strains” (Antibiotics, 2023).
In brackets after ≈: the same amount, converted by molar mass. Several values for one entry are separate records, joined by “and”; a condition that tells them apart may be missing. Equal values may be shown once. Read-outs that look alike come from different tables or passages of the source.

Experiments:
E. faecalis ATCC 29212 = assay: Broth microdilution MIC; format: cell-based, Enterococcus faecalis; settings: for MIC: substance alone
S. aureus ATCC 29213 = assay: Broth microdilution MIC; format: cell-based; settings: Staphylococcus aureus, ATCC29213, S. aureus ATCC 29213; substance alone; read-out: MIC
S. aureus ATCC 12598 = assay: Broth microdilution MIC; format: cell-based, Staphylococcus aureus; settings: for MIC: Staphylococcus aureus, ATCC12598, S. aureus ATCC 12598, substance alone, read-out: MIC
[1] = tested on: S. aureus ATCC BAA-1556 USA300; assay: Broth microdilution MIC; format: cell-based, Staphylococcus aureus; settings: Staphylococcus aureus, S. aureus ATCC BAA-1556 USA300; substance alone
[2] = tested on: K. pneumoniae ATCC 700603; assay: Broth microdilution MIC; format: cell-based, Klebsiella pneumoniae; settings: for MIC: substance alone
A. baumannii ATCC 17978 = assay: Broth microdilution MIC; format: cell-based; settings: Acinetobacter baumannii, ATCC17978, substance alone
P. aeruginosa ATCC 27853 = assay: Broth microdilution MIC; format: cell-based, Pseudomonas aeruginosa; settings: substance alone
S. enterica ATCC 14028 = assay: Broth microdilution MIC; format: cell-based; settings: Salmonella enterica, ATCC14028, substance alone
E. coli ATCC 25922 = assay: Broth microdilution MIC; format: cell-based; settings: Escherichia coli, ATCC25922, substance alone, read-out: MIC
all tested strains = assay: Broth microdilution MIC, summary over all tested strains; format: cell-based; settings: for MIC reduction in combination with PB4: all tested bacterial strains, antibiotic + PB4
[3] = tested on: CaCo-2 (ATCC HTB-37) colon–rectal cancer cell line; assay: MTT cytotoxicity assay on CaCo-2 cells; format: cell-based, human; settings: for IC50: Homo sapiens, CaCo-2 cell line, MTT
Description: To fully assess the biological activity of the new molecules, they were tested at different concentrations on the CaCo-2 (ATCC HTB-37) colon–rectal cancer cell line. These human cancer cells were exposed to compound solutions ranging in concentration from 100 µM to 0.01 µM. As a reference compound for these assays, we used 5-Fluorouracil (5-FU), a pyrimidine analog from the antimetabolite family.
The MTT assay was also performed for the selected antibiotics to evaluate the effect of their combined treatment with PB4.
To evaluate the effect of the heteroaryl ethylene compounds and the antibiotics, an MTT ([3-(4,5-dimethylthiazol-2-yl)-2,5-diphenyltetrazolium bromide]) assay was performed as previously described. […] Both concentrations were also tested in combination with PB4 0.2 µM. All antibiotics were provided by Thermo Scientific^TM Oxoid^TM, Basingstoke, UK. Twenty-four hours after plating, the cells were treated with 20 μL of each solution. Untreated cells were used as controls. […] The IC50 values were calculated by nonlinear regression analysis using GraphPad Prism 6.0 software.

Gram-positive strains = assay: Broth microdilution MIC, summary over Gram-positive strains; format: cell-based
[4] = tested on: CaCo2 colon-rectal cancer cell line; parameters: method as in in-house dataset; Log(IC50) 48h: unit not given here; settings: in-house dataset previously tested by the authors' groups, ref in-house dataset, cited from earlier work
S. aureus ATCC29213 = settings: QSAR dataset; cited from earlier work
[5] = Enterococcus faecalis, ATCC29212, E. faecalis ATCC 29212, read-out: MIC
[6] = Klebsiella pneumoniae, ATCC700603, K. pneumoniae ATCC 700603, read-out: MIC
[7] = Pseudomonas aeruginosa, ATCC27853, P. aeruginosa ATCC 27853, read-out: MIC
[8] = Caco-2, 24 h, 24 h of treatment, read-out: IC50 at 24 h
[9] = Caco-2, 48 h, 48 h of treatment, read-out: IC50 at 48 h

Structure (SMILES) | MIC (S. aureus ATCC 29213) | MIC (S. aureus ATCC 12598) | MIC [1] | MIC (A. baumannii ATCC 17978) | MIC (S. enterica ATCC 14028) | MIC (E. coli ATCC 25922) | MIC reduction in combination with PB4 (all tested strains) | MIC (E. faecalis ATCC 29212; [5]) | MIC [2, 6] | MIC (P. aeruginosa ATCC 27853; [7]) | IC50 [3, 8] [nM] | IC50 [3, 9] [nM] | other results
CC1(C)S[C@@H]2[C@H](NC(=O)[C@H](N)c3ccccc3)C(=O)N2[C@H]1C(=O)O [Ampicillin, ampicillin, reference compound] | 2 µg/mL (≈ 5.72 µM) | 0.125 µg/mL (≈ 0.358 µM) | 8 µg/mL (≈ 22.9 µM) | 32 µg/mL (≈ 91.6 µM) | 2 µg/mL (≈ 5.72 µM) | 8 µg/mL (≈ 22.9 µM) | no significant MIC reductions | – | – | – | – | – | MIC of antibiotic in combination with PB4 (E. faecalis ATCC 29212; E. faecalis ATCC 29212, PB4 at fixed 0.125 μg/mL (0.24 μM), a quarter of an MIC value): 1 µg/mL; MIC (E. faecalis ATCC 29212; E. faecalis ATCC 29212): 4 mg/L (≈ 11.4 µM); MIC (E. faecalis ATCC 29212; E. faecalis ATCC 29212, listed as AMP): 0.25 mg/L (≈ 0.715 µM); MIC of antibiotic in combination with PB4 ([2]; K. pneumoniae ATCC 700603, sub-MIC PB4): 2 µg/mL; MIC ([2]; K. pneumoniae ATCC 700603): 8 mg/L (≈ 22.9 µM); MIC ([2]; K. pneumoniae ATCC 700603, listed as AMP): >128 mg/L; MIC (P. aeruginosa ATCC 27853; P. aeruginosa ATCC 27853): 2 mg/L (≈ 5.72 µM); MIC (P. aeruginosa ATCC 27853; P. aeruginosa ATCC 27853, listed as AMP): >128 mg/L
COc1ccc(/C=C/c2cccc(/C=C/c3ccc(OC)cc3)[n+]2C)cc1 [BCM6] | 4 µg/mL and 8.2 µM | 4 µg/mL and 8.23 µM | 8 µg/mL and 16.4 µM | 64 µg/mL and 132 µM | > 128 µg/mL and > 264 µM | 128 µg/mL and 264 µM | – | 32 µg/mL and 65.9 µM | > 128 µg/mL and > 264 µM | > 128 µg/mL and > 264 µM | 160 | 180 | MIC (Gram-positive strains): 4 to 8 µg/mL; IC50 ([4]; 48h): 12300 nM; Log(IC50) 48h [4]: 1.09
CC[C@H]1OC(=O)[C@H](C)[C@@H](O[C@H]2C[C@@](C)(OC)[C@@H](O)[C@H](C)O2)[C@H](C)[C@@H](O[C@@H]2O[C@H](C)C[C@H](N(C)C)[C@H]2O)[C@](C)(O)C[C@@H](C)C(=O)[C@H](C)[C@@H](O)[C@]1(C)O [Erythromycin, erythromycin] | 0.5 µg/mL (≈ 0.681 µM) | 0.5 µg/mL (≈ 0.681 µM) | 32 µg/mL (≈ 43.6 µM) | – | – | – | no significant MIC reductions | 2 mg/L (≈ 2.73 µM) | – | – | – | – | Percentage of cell growth, antibiotic ([3]; CaCo-2, antibiotic alone at MIC for E. faecalis ATCC 29212, 24 h): 148.2%; Percentage of cell growth, antibiotic ([3]; CaCo-2, antibiotic alone at MIC for E. faecalis ATCC 29212, 48 h): 269.0%; Percentage of cell growth, antibiotic ([3]; CaCo-2, antibiotic alone at sub-MIC (half-MIC), 24 h): 159.5%; Percentage of cell growth, antibiotic ([3]; CaCo-2, antibiotic alone at sub-MIC (half-MIC), 48 h): 280.6%; Percentage of cell growth, antibiotic + PB4 0.2 µM ([3]; CaCo-2, antibiotic at MIC + PB4 0.2 µM, 24 h): 133.6%; Percentage of cell growth, antibiotic + PB4 0.2 µM ([3]; CaCo-2, antibiotic at MIC + PB4 0.2 µM, 48 h): 117.5%; Percentage of cell growth, antibiotic + PB4 0.2 µM ([3]; CaCo-2, antibiotic at sub-MIC + PB4 0.2 µM, 24 h): 124.9%; Percentage of cell growth, antibiotic + PB4 0.2 µM ([3]; CaCo-2, antibiotic at sub-MIC + PB4 0.2 µM, 48 h): 155.8%
C[n+]1c(/C=C/c2ccc(N(c3ccccc3)c3ccccc3)cc2)cccc1/C=C/c1ccc(N(c2ccccc2)c2ccccc2)cc1 [GC-VI-10] | 128 µg/mL and 169 µM | 64 µg/mL and 84.4 µM | 128 µg/mL and 169 µM | > 128 µg/mL and > 169 µM | > 128 µg/mL and > 169 µM | > 128 µg/mL and > 169 µM | – | 4 µg/mL and 5.2 µM | > 128 µg/mL and > 169 µM | > 128 µg/mL and > 169 µM | 1350 | 990 | MIC levels over all tested strains (all tested strains; summary in text over all tested strains): high MIC levels
CN(C)c1ccc(/C=C/C=C/c2ccc3ccccc3[n+]2C)cc1 [GC-VII-50] | 0.5 µg/mL and 1.1 µM | 0.25 µg/mL and 0.5 µM | 2 µg/mL and 4.6 µM | 16 µg/mL and 37.2 µM | > 128 µg/mL and > 297 µM | 64 µg/mL and 149 µM | – | 8 µg/mL and 18.5 µM | > 128 µg/mL and > 297 µM | > 128 µg/mL and > 297 µM | 170 | 70 | MIC (Gram-positive strains): 0.25 to 8 µg/mL
C[C@@H](O)[C@H]1C(=O)N2C(C(=O)O)=C(SCCN=CN)C[C@H]12 [IMI, imipenem, reference compound] | – | – | – | 0.06 µg/mL (≈ 0.2 µM) | 0.06 µg/mL (≈ 0.2 µM) | 0.06 µg/mL (≈ 0.2 µM) | no significant MIC reductions | – | 0.03 mg/L (≈ 0.1 µM) | 0.25 mg/L (≈ 0.835 µM) | – | – | –
CC(=O)NC[C@H]1CN(c2ccc(N3CCOCC3)c(F)c2)C(=O)O1 [Linezolid, linezolid, reference compound] | 4 µg/mL (≈ 11.9 µM) | 4 µg/mL (≈ 11.9 µM) | 2 µg/mL (≈ 5.93 µM) | – | – | – | no significant MIC reductions | 4 mg/L (≈ 11.9 µM) | – | – | – | – | –
CN(C)c1ccc(/C=C/c2cccc(/C=C/c3ccc(N(C)C)cc3)[n+]2C)cc1 [PB4] | 0.125 µg/mL and 0.24 µM | 0.25 µg/mL and 0.49 µM | ≤ 0.125 µg/mL and ≤ 0.24 µM | ≤ 0.125 µg/mL and ≤ 0.24 µM | 64 µg/mL and 125 µM | 2 µg/mL and 3.91 µM | – | 0.5 µg/mL and 0.98 µM | 64 µg/mL and 125 µM | > 128 µg/mL and > 250 µM | 310 | 300 | Reduction of PB4 MIC in combination with GC-VI-70 (E. faecalis ATCC 29212; E. faecalis ATCC 29212): 2 logs; MIC of PB4 + GC-VI-70 combination (E. faecalis ATCC 29212; E. faecalis ATCC 29212, PB4 fixed at its MIC for the strain, GC-VI-70 128 to 0.125 mg/L): 0.06 µg/mL; Reduction of PB4 MIC in combination with GC-VI-70 (S. aureus ATCC 12598; S. aureus ATCC 12598): 2 logs; MIC of PB4 + GC-VI-70 combination (S. aureus ATCC 12598; S. aureus ATCC 12598, PB4 fixed at its MIC for the strain, GC-VI-70 128 to 0.125 mg/L): 0.06 µg/mL; Percentage of cell growth, PB4 0.2 µM ([3]; CaCo-2, PB4 alone 0.2 µM, 48 h): 72.7%; MIC (S. aureus ATCC29213): 0.25 µg/mL
